Measurements as given in PMC5421814, “A Sequence in the loop domain of hepatitis C virus E2 protein identified in silico as crucial for the selective binding to human CD81” (PLoS ONE, 2017).
Like-named read-outs stand apart in the source and are kept apart here. Residues, ends and D or L forms follow the SMILES beside them.

T1: p_H-CD81 (human)
T1 construct: human CD81, head domain of the large extracellular loop, residues 167-188; Immobilised on a CM-5 chip by amine coupling; also called human CD81 peptide; receptor peptide from the head domain region of human CD81; source: synthetic peptide, bought: GeneMark (GMbiolab Co., Ltd., Taiwan)
T1 peptide: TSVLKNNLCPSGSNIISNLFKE

T2: p_R-CD81 (rat)
T2 construct: rat CD81, head domain of the large extracellular loop, residues 167-188; Immobilised on a CM-5 chip by amine coupling; also called rat CD81 peptide; receptor peptide from the head domain region of rat CD81; source: synthetic peptide, bought: GeneMark (GMbiolab Co., Ltd., Taiwan)
T2 peptide: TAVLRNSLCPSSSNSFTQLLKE

B1: p_E2-site1 (peptide)
peptide: INSTALNCNESLNTGWLAGLFYQ
notes: hepatitis C virus envelope glycoprotein E2, residues 422-444 of the polyprotein; also called E2-site1 peptide; E2-s1; source: synthetic peptide, bought: GeneMark (GMbiolab Co., Ltd., Taiwan)
B2: p_E2-site2 (peptide)
peptide: RSGAPTYSWGANDTDVF
notes: hepatitis C virus envelope glycoprotein E2, residues 521-537 of the polyprotein; also called E2-site2 peptide; E2-s2; source: synthetic peptide, bought: GeneMark (GMbiolab Co., Ltd., Taiwan)

How the values were obtained:
[1] = biological target: T3, p_R-CD81 (rat CD81 peptide) (Rattus norvegicus, UniProt Q62745); test: SPR binding to immobilized rat CD81 peptide; settings: for Kd: steady-state isotherm; for SPR response / binding (in words): various concentrations over immobilized rat CD81 peptide
T3 construct: ^167[…]^188; purchased GeneMark (GMbiolab Co., Ltd., Taiwan); host or cells: chemical synthesis
Excerpt: (§1) Based on the in silico analysis, peptides were designed for experimental validations of the binding site predictions. Four peptides (p_E2-site1, p_E2-site2, p_H-CD81 and p_R-CD81) designed according to the ZDOCK program and MM/PBSA binding free energy calculations were chemically synthesized and purchased from GeneMark (GMbiolab Co., Ltd., Taiwan). The human and rat CD81 peptides, p_H-CD81 and p_R-CD81, and the HCV E2 peptides, p_E2-site1 and p_E2-site2, were derived from the results of molecular docking between ligand E2 and receptor CD81. Control and HCV E2 mutant peptides were also synthesized (S1 Table) for the SPR and cell based binding measurements to rule out the possible non-specific bindings in the investigations. The HCV E2 mutant peptides were designed based on the mutation studies.
(§2) SPR experiments were conducted to measure the binding efficiency of the designed ligand and receptor peptides. The SPR measurements were performed using a Biacore T200 workstation (GE Healthcare, USA). Peptides p_H-CD81 and p_R-CD81 were diluted to a concentration of 7.5 μM in a 10 mM sodium acetate buffer at pH 4.0 and immobilized onto a CM-5 sensor chip using amine coupling (EDC-NHS) for 5 min at a flow speed of 5 μL/min. Approximately 1000 response units (RU) of p_H-CD81 and p_R-CD81 were immobilized on the chip. In this study, data on the kinetics and affinity of ligand-receptor binding were obtained by flowing several different concentrations of the p_E2-site1 and p_E2-site2 over the chip sequentially at a flow rate of 30 µL/min for 2 min. The response was measured at two time points, 0 and 120 sec, to obtain information on the rate of CD81 peptides association with and dissociation from the p-E2-site1 and p-E2-site2 peptides. Equilibrium binding curves were generated and fitted using a monovalent binding model for each peptide to determine the KD of the binding of E2 peptides (p_E2-site1 and p_E2-site2) with receptor CD81 peptides (p_H-CD81 and p_R-CD81).

[2] = biological target: T4, p_H-CD81 (human CD81 peptide) (Homo sapiens, UniProt P60033); test: SPR binding to immobilized human CD81 peptide; settings: for Kd: Biacore T200, CM-5 chip, p_H-CD81 immobilized (~1000 RU), flow 30 µL/min 2 min, steady-state isotherm, monovalent model, average of three measurements ± standard deviation; for SPR response / binding (in words): various concentrations over immobilized human CD81 peptide
T4 construct: ^167[…]^188; purchased GeneMark (GMbiolab Co., Ltd., Taiwan); host or cells: chemical synthesis
Excerpt: as §1, §2

[3] = biological target: T1, p_H-CD81; test: SPR; Biacore T200; p_H-CD81 or p_R-CD81 (about 1000 RU) immobilised on a CM-5 chip by amine coupling; E2 peptides flowed over at several concentrations, 30 µL/min for 2 min; equilibrium binding curves fitted with a monovalent binding model; settings: both partners purified
[4] = biological target: T2, p_R-CD81; test: as above; settings: both partners purified

Molecule	Kd [2] [µM]	SPR response / binding (in words) [1]	SPR response / binding (in words) [2]	Kd [3] [µM]	Kd [4] [µM]	other results
CC(C)[C@H](NC(=O)[C@H](CC(=O)O)NC(=O)[C@@H](NC(=O)[C@H](CC(=O)O)NC(=O)[C@H](CC(N)=O)NC(=O)[C@H](C)NC(=O)CNC(=O)[C@H](Cc1c[nH]c2ccccc12)NC(=O)[C@H](CO)NC(=O)[C@H](Cc1ccc(O)cc1)NC(=O)[C@@H](NC(=O)[C@@H]1CCCN1C(=O)[C@H](C)NC(=O)CNC(=O)[C@H](CO)NC(=O)[C@@H](N)CCCNC(=N)N)[C@@H](C)O)[C@@H](C)O)C(=O)N[C@@H](Cc1ccccc1)C(=O)O [p_E2-site2] (H-RSGAPTYSWGANDTDVF-OH)	1.07 ± 0.09	–	–	–	–	Kd ([1]; p_R-CD81 immobilized, value printed in Fig 6 plot, read-out: KD (printed in the picture, Fig 6)): 6.4 µM
CPLNGSTVYGHLRHCLSCSGTMVKF [p_random-25, control (random) peptide]	–	not significantly increased	not significantly increased	–	–	–
SENHLRHCLSCSKCRKEM [p_random-18, control (random) peptide]	–	not significantly increased	not significantly increased	–	–	–
CC[C@H](C)[C@H](N)C(=O)N[C@@H](CC(N)=O)C(=O)N[C@@H](CO)C(=O)N[C@H](C(=O)N[C@@H](C)C(=O)N[C@@H](CC(C)C)C(=O)N[C@@H](CC(N)=O)C(=O)N[C@@H](CS)C(=O)N[C@@H](CC(N)=O)C(=O)N[C@@H](CCC(=O)O)C(=O)N[C@@H](CO)C(=O)N[C@@H](CC(C)C)C(=O)N[C@@H](CC(N)=O)C(=O)N[C@H](C(=O)NCC(=O)N[C@@H](Cc1c[nH]c2ccccc12)C(=O)N[C@@H](CC(C)C)C(=O)N[C@@H](C)C(=O)NCC(=O)N[C@@H](CC(C)C)C(=O)N[C@@H](Cc1ccccc1)C(=O)N[C@@H](Cc1ccc(O)cc1)C(=O)N[C@@H](CCC(N)=O)C(=O)O)[C@@H](C)O)[C@@H](C)O [p_E2-site1] (H-INSTALNCNESLNTGWLAGLFYQ-OH)	7.96 ± 1.7	–	–	–	–	Kd ([1]; Biacore T200, CM-5 chip, p_R-CD81 immobilized (~1000 RU), flow 30 µL/min 2 min, monovalent model, average of three measurements ± standard deviation, read-out: KD): 13.8 ± 2.46 µM
B1	–	–	–	7.96	13.8	–
B2	–	–	–	1.07	6.38	–
